Values after ≈ are worked out from the molar mass of the structure shown. Values joined by “and” are separate entries in the source; they are usually repeats but may differ in a detail not shown here. Identical values can stand only once. Counter-ions that a name gives are not always drawn. Like-named read-outs stand apart in the source and are kept apart here.
Columns and labels:
K. pneumoniae 19701 [1] = assay: Microbroth MIC, K. pneumoniae 19701; format: cell-based, Klebsiella pneumoniae
E. cloacae 4184 [2] = assay: Agar MIC, E. cloacae 4184; format: cell-based; conditions: Enterobacter cloacae; E. cloacae 4184 (De-repressed AmpC)
K. pneumoniae 19701 [3] = assay: Agar MIC, K. pneumoniae 19701; format: cell-based, Klebsiella pneumoniae
[4] = test system: K. pneumoniae ATCC BAA-1705; assay: Microbroth MIC, K. pneumoniae ATCC BAA-1705; format: cell-based; conditions: Klebsiella pneumoniae
K. pneumoniae 4582 [5] = assay: Microbroth MIC, K. pneumoniae 4582; format: cell-based, Klebsiella pneumoniae
[6] = test system: ESBL-, KPC-, and OXA-positive isolates; format: cell-based, Enterobacteriaceae; conditions: avibactam 4 μg/mL
E. coli ATCC 25922 [7] = assay: Microbroth MIC, E. coli ATCC 25922; format: cell-based; conditions: Escherichia coli, ATCC25922
E. coli ATCC 35218 [8] = assay: Agar MIC, E. coli ATCC 35218; format: cell-based; conditions: Escherichia coli, ATCC35218; E. coli ATCC 35218 (TEM-1 Quality Control Strain)
K. pneumoniae 4582 [9] = assay: Agar MIC, K. pneumoniae 4582; format: cell-based, Klebsiella pneumoniae
E. coli 470-21711 [10] = assay: Microbroth MIC, E. coli 470-21711; format: cell-based; conditions: Escherichia coli, 47021711; E. coli 470-21711 (CTX-M-15)
K. pneumoniae 15160 [11] = assay: Agar MIC, K. pneumoniae 15160; format: cell-based; conditions: Klebsiella pneumoniae; K. pneumoniae 15160 (CTX-M-15, CTX-M-2, OXA-10, OXA-1, SHV-11, TEM-1)
K. pneumoniae 27144 [12] = assay: Microbroth MIC, K. pneumoniae 27144; format: cell-based; conditions: Klebsiella pneumoniae; K. pneumoniae 27144 (CTX-M-15, OXA-1, OXA-48, SHV-11, TEM-1)
E. cloacae 0002 [13] = assay: Microbroth MIC, E. cloacae 0002; format: cell-based, Enterobacter cloacae
K. pneumoniae 700603 [14] = assay: Agar MIC, K. pneumoniae 700603; format: cell-based; conditions: Klebsiella pneumoniae; K. pneumoniae 700603 (SHV-18)
E. coli 470-21711 [15] = assay: Agar MIC, E. coli 470-21711; format: cell-based; conditions: Escherichia coli, 47021711; E. coli 470-21711 (CTX-M-15)
E. cloacae 4184 [16] = assay: Microbroth MIC, E. cloacae 4184; format: cell-based; conditions: Enterobacter cloacae; E. cloacae 4184 (De-repressed AmpC)
E. cloacae 4182 [17] = assay: Microbroth MIC, E. cloacae 4182; format: cell-based; conditions: Enterobacter cloacae; E. cloacae 4182 (De-repressed AmpC)
K. pneumoniae 908 [18] = assay: Agar MIC, K. pneumoniae 908; format: cell-based, Klebsiella pneumoniae
E. cloacae 4182 [19] = assay: Agar MIC, E. cloacae 4182; format: cell-based; conditions: Enterobacter cloacae; E. cloacae 4182 (De-repressed AmpC)
E. cloacae 0065 [20] = assay: Microbroth MIC, E. cloacae 0065; format: cell-based; conditions: Enterobacter cloacae; E. cloacae 0065 (cAmpC)
E. cloacae 0002 [21] = assay: Agar MIC, E. cloacae 0002; format: cell-based, Enterobacter cloacae
E. coli 136-4643 [22] = assay: Microbroth MIC, E. coli 136-4643; format: cell-based; conditions: Escherichia coli, 1364643; E. coli 136-4643 (CTX-M-15)
K. pneumoniae 79 [23] = assay: Microbroth MIC, K. pneumoniae 79; format: cell-based, Klebsiella pneumoniae
K. pneumoniae 19701 [24] = assay: One-compartment in vitro infection (chemostat) model, K. pneumoniae 19701; format: cell-based, Klebsiella pneumoniae; conditions: for Average Log10 CFU/mL (+/− Range of Data), 5 × Ceftibuten + Avibactam at 4 mg/L MIC: Ceftibuten 400 mg q8h
E. coli 136-4643 [25] = assay: Agar MIC, E. coli 136-4643; format: cell-based; conditions: Escherichia coli, 1364643; E. coli 136-4643 (CTX-M-15)
[26] = cited from earlier work
K. pneumoniae 908 [27] = assay: Microbroth MIC, K. pneumoniae 908; format: cell-based, Klebsiella pneumoniae
E. cloacae 0065 [28] = assay: Agar MIC, E. cloacae 0065; format: cell-based; conditions: Enterobacter cloacae; E. cloacae 0065 (cAmpC)
E. cloacae 0060 [29] = assay: Microbroth MIC, E. cloacae 0060; format: cell-based; conditions: Enterobacter cloacae; E. cloacae 0060 (cAmpC)
K. pneumoniae 27144 [30] = assay: Agar MIC, K. pneumoniae 27144; format: cell-based; conditions: Klebsiella pneumoniae; K. pneumoniae 27144 (CTX-M-15, OXA-1, OXA-48, SHV-11, TEM-1)
K. pneumoniae 15160 [31] = assay: Microbroth MIC, K. pneumoniae 15160; format: cell-based; conditions: Klebsiella pneumoniae; K. pneumoniae 15160 (CTX-M-15, CTX-M-2, OXA-10, OXA-1, SHV-11, TEM-1)
K. pneumoniae 700603 [32] = assay: Microbroth MIC, K. pneumoniae 700603; format: cell-based; conditions: Klebsiella pneumoniae; K. pneumoniae 700603 (SHV-18)
K. pneumoniae 79 [33] = assay: Agar MIC, K. pneumoniae 79; format: cell-based, Klebsiella pneumoniae
E. coli ATCC 35218 [34] = assay: Microbroth MIC, E. coli ATCC 35218; format: cell-based; conditions: Escherichia coli, ATCC35218; E. coli ATCC 35218 (TEM-1 Quality Control Strain)
E. coli ATCC 25922 [35] = assay: Agar MIC, E. coli ATCC 25922; format: cell-based; conditions: Escherichia coli, ATCC25922; E. coli ATCC 25922 (Wildtype)
E. cloacae 0060 [36] = assay: Agar MIC, E. cloacae 0060; format: cell-based; conditions: Enterobacter cloacae; E. cloacae 0060 (cAmpC)
[37] = E. coli ATCC 25922 (Wildtype), read-out: Microbroth MIC

SMILES	MIC (E. cloacae 4184 [2]) [µg/mL]	MIC (E. coli ATCC 25922 [7]; [37]) [µg/mL]	MIC (E. coli ATCC 35218 [8]) [µg/mL]	MIC (E. coli 470-21711 [10]) [µg/mL]	MIC (K. pneumoniae 15160 [11]) [µg/mL]	MIC (K. pneumoniae 27144 [12]) [µg/mL]	MIC (K. pneumoniae 700603 [14]) [µg/mL]	MIC (E. coli 470-21711 [15]) [µg/mL]	MIC (E. cloacae 4184 [16]) [µg/mL]	MIC (E. cloacae 4182 [17]) [µg/mL]	MIC (E. cloacae 4182 [19]) [µg/mL]	MIC (E. cloacae 0065 [20]) [µg/mL]	MIC (E. coli 136-4643 [22]) [µg/mL]	MIC (E. coli 136-4643 [25]) [µg/mL]	MIC (E. cloacae 0065 [28]) [µg/mL]	MIC (E. cloacae 0060 [29]) [µg/mL]	MIC (K. pneumoniae 27144 [30]) [µg/mL]	MIC (K. pneumoniae 700603 [32]) [µg/mL]	MIC (E. coli ATCC 35218 [34]) [µg/mL]	MIC (E. coli ATCC 25922 [35]) [µg/mL]	also measured
Nc1nc(/C(=C/CC(=O)O)C(=O)N[C@@H]2C(=O)N3C(C(=O)O)=CCS[C@H]23)cs1 [ceftibuten, (6R,7R)-7-((Z)-2-(2-amino-4-thiazolyl)-4-carboxycrotonamido)-8-oxo-5-thia-1-azabicyclo(4.2.0)oct-2-ene-2-carboxylic acid]	> 64	0.5 (≈ 1.22 µM)	0.125 (≈ 0.305 µM)	64 (≈ 156 µM)	32 (≈ 78 µM)	64 (≈ 156 µM)	0.5 (≈ 1.22 µM)	32 (≈ 78 µM)	> 64	> 64	> 64	> 64	32 (≈ 78 µM)	8 (≈ 19.5 µM)	> 64	> 64	32 (≈ 78 µM)	0.5 (≈ 1.22 µM)	0.125 (≈ 0.305 µM)	0.5 (≈ 1.22 µM)	MIC (K. pneumoniae 19701 [1]; Klebsiella pneumoniae, 19701, read-out: Microbroth MIC): 64 µg/mL (≈ 156 µM); MIC (K. pneumoniae 19701 [3]; Klebsiella pneumoniae, 19701, read-out: agar MIC): 32 µg/mL (≈ 78 µM); MIC ([4]; ATCCBAA1705, read-out: Microbroth MIC): 16 µg/mL (≈ 39 µM); MIC (K. pneumoniae 4582 [5]; Klebsiella pneumoniae, 4582, read-out: Microbroth MIC): 32 µg/mL (≈ 78 µM); reduction of MIC90 values by addition of avibactam [6]: at least five doubling dilutions; MIC (E. coli ATCC 25922 [7]; E. coli ATCC 25922 (Wild type), read-out: MIC): 0.5 µg/mL (≈ 1.22 µM); MIC (K. pneumoniae 4582 [9]; Klebsiella pneumoniae, 4582, read-out: agar MIC): 16 µg/mL (≈ 39 µM); MIC (E. cloacae 0002 [13]; Enterobacter cloacae, 0002, read-out: Microbroth MIC): 32 µg/mL (≈ 78 µM); MIC (K. pneumoniae 908 [18]; Klebsiella pneumoniae, 908, read-out: agar MIC): 32 µg/mL (≈ 78 µM); MIC (E. cloacae 0002 [21]; Enterobacter cloacae, 0002, read-out: agar MIC): 16 µg/mL (≈ 39 µM); MIC (K. pneumoniae 79 [23]; Klebsiella pneumoniae, 79, read-out: Microbroth MIC): > 64 µg/mL; Average Log10 CFU/mL (+/− Range of Data), 5 × Ceftibuten + Avibactam at 4 mg/L MIC (K. pneumoniae 19701 [24]; 0 h): 0 (0) Log10 CFU/mL; Average Log10 CFU/mL (+/− Range of Data), 5 × Ceftibuten + Avibactam at 4 mg/L MIC (K. pneumoniae 19701 [24]; 24 h): 1.67 (1.17) Log10 CFU/mL; bacterial burden response over 24 hours (K. pneumoniae 19701 [24]; ceftibuten 200 mg q8h monotherapy): no activity; bacterial burden response over 24 hours (K. pneumoniae 19701 [24]; ceftibuten 400 mg q8h monotherapy): did not reduce the bacterial burden; plasma protein binding ([26]; plasma): 65.0%; MIC (K. pneumoniae 908 [27]; Klebsiella pneumoniae, 908, read-out: Microbroth MIC): 32 µg/mL (≈ 78 µM); MIC (K. pneumoniae 15160 [31]): 64 µg/mL (≈ 156 µM); MIC (K. pneumoniae 79 [33]; Klebsiella pneumoniae, 79, read-out: agar MIC): 64 µg/mL (≈ 156 µM); MIC (E. cloacae 0060 [36]): > 64 µg/mL
NC(=O)[C@@H]1CC[C@@H]2CN1C(=O)N2OS(=O)(=O)O [avibactam, [2S,5R]-2-carbamoyl-7-oxo-1,6-diazabicyclo[3.2.1]octan-6-yl hydrogen sulfate]	16	16	8	16	16	512	64	8	32	32	16	16	256	8	8	32	64	64	16	8	MIC (K. pneumoniae 19701 [1]; Klebsiella pneumoniae, K. pneumoniae 19701 (KPC-2), read-out: Microbroth MIC): > 512 µg/mL; MIC (K. pneumoniae 19701 [3]; Klebsiella pneumoniae, K. pneumoniae 19701 (KPC-2), read-out: agar MIC): 32 µg/mL; MIC ([4]; ATCCBAA1705, K. pneumoniae ATCC BAA-1705 (KPC-2), read-out: Microbroth MIC): 16 µg/mL; Microbroth MIC (K. pneumoniae 4582 [5]; K. pneumoniae 4582 (KPC-3), listed as AVI): 64 µg/mL and 32 µg/mL; MIC (K. pneumoniae 4582 [9]; Klebsiella pneumoniae, K. pneumoniae 4582 (KPC-3), read-out: agar MIC): 8 µg/mL; MIC (E. cloacae 0002 [13]; Enterobacter cloacae, E. cloacae 0002 (KPC-3, OXA-9, TEM-1A), read-out: Microbroth MIC): 32 µg/mL; MIC (K. pneumoniae 908 [18]; Klebsiella pneumoniae, K. pneumoniae 908 (KPC-2, SHV-27, TEM-1), read-out: agar MIC): 128 µg/mL; MIC (E. cloacae 0002 [21]; Enterobacter cloacae, E. cloacae 0002 (KPC-3, OXA-9, TEM-1A), read-out: agar MIC): 16 µg/mL; Microbroth MIC (K. pneumoniae 79 [23]; K. pneumoniae 79 (KPC-3, FOX-5, TEM-1 SHV-11), listed as AVI): 16 µg/mL and 32 µg/mL; plasma protein binding ([26]; assumed for free-drug profiles): 6.95%; MIC (K. pneumoniae 908 [27]; Klebsiella pneumoniae, K. pneumoniae 908 (KPC-2, SHV-27, TEM-1), read-out: Microbroth MIC): 128 µg/mL; MIC (K. pneumoniae 79 [33]; Klebsiella pneumoniae, K. pneumoniae 79 (KPC-3, FOX-5, TEM-1 SHV-11), read-out: agar MIC): 16 µg/mL; MIC (E. cloacae 0060 [36]): 16 µg/mL

Reference: patent US20210060033A1, “ORALLY ADMINISTERED COMBINATIONS OF BETA-LACTAM ANTIBIOTICS AND AVIBACTAM DERIVATIVES FOR TREATING BACTERIAL INFECTIONS” (priority 2019, published 2021)
